Data from patent US12285393B2, “Roles of modulators of intersectin-Cdc42 signaling in Alzheimer's disease” (priority 2017, dated 2025).

Experiments:
3×Tg-AD mice [1] = experiment: Burrowing test; format: in vivo; settings: 3×Tg AD mouse model; 20 μg/g I.P. once a week, 4 weeks
Source text: (§1) Six-month-old C57/BL6 (WT) and 3×Tg-AD mice with an average weight of 24 g from Jackson Laboratory (Bar Harbor, Maine, United States of America) were used. The 3×Tg-AD mice in hybrid 129/C57BL/6 background contain two mutant human transgenes, hAPP harboring Swedish mutation (hAPPswe) and mutant htau (htau301L) under a neuron-specific promoter, and also contain the knock-in mutant presenilin 1 (PS1M146V). See Oddo et al. (2003) Neuron 39:409-421). 3×Tg-AD mice were received from Jackson Laboratory as Psen1 B6:129-Psen1<tmMpm>Tg(APPSwetauP301L)1Lfa/J and the wild type control as SF2: (B6129SF1/J+p+Tyr-c+Mgf-SIJ)F2. All mice were subjected to two weeks of training for familiarizing behavioral test procedures. Subsequently, mice were assayed to establish a baseline of behavior tests before ZCL compound treatment. Then, mice were separated into three treatment groups (Control, ZCL278 and ZCL279). Both ZCL278 and ZCL279 were dissolved in sesame oil with 5% DMSO and each treatment was administrated via an intraperitoneal injection. All treatment groups of mice were treated once a week. Control group was treated with 130 μl 5% DMSO in sesame oil. […]
Burrowing test: At least 2.5 hours before the start of the dark cycle (4:30 pm), mice from each selected treatment group were housed in individual cages. […] After 2 hours, the food left in the tube was measured.

3×Tg-AD mice [2] = experiment: Nesting test; format: in vivo; settings: 3×Tg AD mouse model; 20 μg/g I.P. once a week, 4 weeks
Source text: Six-month-old C57/BL6 (WT) and 3×Tg-AD mice with an average weight of 24 g from Jackson Laboratory (Bar Harbor, Maine, United States of America) were used. The 3×Tg-AD mice in hybrid 129/C57BL/6 background contain two mutant human transgenes, hAPP harboring Swedish mutation (hAPPswe) and mutant htau (htau301L) under a neuron-specific promoter, and also contain the knock-in mutant presenilin 1 (PS1M146V). See Oddo et al. (2003) Neuron 39:409-421). 3×Tg-AD mice were received from Jackson Laboratory as Psen1 B6:129-Psen1<tmMpm>Tg(APPSwetauP301L)1Lfa/J and the wild type control as SF2: (B6129SF1/J+p+Tyr-c+Mgf-SIJ)F2. All mice were subjected to two weeks of training for familiarizing behavioral test procedures. […]
Nesting test: Similar to the burrowing test, 2.5 hours before the start of the dark cycle, mice were housed singly in cages containing one 5 cm square of pressed cotton (‘Nestlet’, which the mice normally received as part of their environmental enrichment) with which to make a nest. The condition of each nest was assessed after 2 hours, according to a four-point scale as follows: • 1=Nestlet not noticeably touched (>90% intact). • 2=Nestlet partially tom up (70-90% remaining intact). • 3=Mostly shredded but often no identifiable nest site (<50% remaining intact). • 4=An identifiable nest (<10% remaining intact).

3×Tg-AD mice [3] = experiment: Morris water maze test; format: in vivo
Source text: as §1, with “ZCL279).” for “ZCL279). Both ZCL278 and ZCL279 were dissolved in sesame oil with 5% DMSO and each treatment was administrated via an intraperitoneal injection. All treatment groups of mice were treated once a week. Control group was treated with 130 μl 5% DMSO in sesame oil.”
Mice were trained to swim to a 14 cm diameter circular clear Plexiglas platform submerged 1.5 cm beneath the surface of the water and invisible to the mice while swimming. […] Retention of the spatial training was assessed at 1.5 hr and again at 24 hr after the last training trial. […] Mice were monitored by a camera mounted in the ceiling directly above the pool, and all trials were stored on videotape for subsequent analysis.

Rac1 = molecular target: T1, Rac1 (Homo sapiens, UniProt P63000); experiment: Rho-GEF IC50 assay (GEF/DH domain-mediated mant-GTP binding); format: biochemical
T1 construct: purchased Cytoskeleton Inc
Description: (§2) Rho-GEF IC50 Assay: Rho-GEF assay (Cytoskeleton Inc., Denver, Colorado, United States of America) was conducted per manufacturer's instructions (λex=360 nm, λem=460 nm). Briefly, a solution (50 μL) of purified Rho GTPase (1 μM) and mant-GTP (1.5 μM) with or without compound (0.001-500 μM) was prepared and the absorbance monitored for 10-30 min to obtain the background/baseline. The addition of purified GEF/DH domain (0.08-0.2 μM) was carried out simultaneously and the absorbance was recorded for 30-45 min. The linear slope following the addition of the GEF was calculated and expressed as percentage of the control and plotted on an IC50 curve.

RhoA = molecular target: T2, RhoA (Homo sapiens, UniProt P61586); experiment: as above; format: biochemical
T2 construct: purchased Cytoskeleton Inc
Description: as §2

GTP-bound (active) Cdc42 = molecular target: T3, GTP-bound (active) Cdc42 (Mus musculus, UniProt P60766); experiment: G-LISA in serum-starved Swiss 3T3 cells; format: cell-based; settings: 50 μM
T3 construct: endogenous in cells; host or cells: Swiss 3T3 cells
Description: G-LISA: G-LISA is an ELISA-based assay that allows a quantitative determination of the levels of GTP-bound (active) Cdc42 in cellular lysates. Swiss 3T3 cells (˜50% confluent) were starved for 24h then treated with ZCL278 (50 μM) for 0, 5, 10, 15, 30, or 60 m. Cells were lysed and G-LISA conducted according to Cytoskeleton G-LISA protocol. Briefly, ˜300 μL of lysis buffer was added, cells were scraped, transferred to a centrifuge tube, and centrifuged at 0° C. for 1 min at 13,200 rpm. Samples were flash frozen in liquid nitrogen. Approximately […] protein was loaded into duplicate wells for G-LISA. Absorbance was measured at 490 nm.

Cdc42 = Cdc42 (Homo sapiens, UniProt P60953); settings: in the presence of activating upstream signaling compounds; cited from earlier work
Sequence of Cdc42 (P60953 whole entry, species assumed): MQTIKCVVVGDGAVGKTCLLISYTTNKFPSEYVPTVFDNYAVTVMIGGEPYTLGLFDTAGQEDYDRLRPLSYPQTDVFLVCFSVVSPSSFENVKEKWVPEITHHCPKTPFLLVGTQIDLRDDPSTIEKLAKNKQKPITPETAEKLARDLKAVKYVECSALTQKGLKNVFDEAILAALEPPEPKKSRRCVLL

T3 sequence (P60766 whole entry): as the sequence (P60953 whole entry, species assumed) above
T2 sequence (P61586 whole entry): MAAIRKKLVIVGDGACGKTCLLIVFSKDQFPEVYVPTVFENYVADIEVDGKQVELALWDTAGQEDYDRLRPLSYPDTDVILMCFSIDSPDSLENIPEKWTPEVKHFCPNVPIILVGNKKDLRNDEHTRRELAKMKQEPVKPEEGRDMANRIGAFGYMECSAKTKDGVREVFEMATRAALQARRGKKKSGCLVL

| Structure (SMILES) | instinctual behavior: food burrowing (3×Tg-AD mice [1]) | instinctual behavior: nesting behavior (3×Tg-AD mice [2]) | spatial memory ability compared with WT mice (3×Tg-AD mice [3]; 3×Tg AD mice, Day 4) | spatial memory ability (latency in finding the submerged platform) (3×Tg-AD mice [3]; AD mouse model) | IC50 (Rac1) | IC50 (RhoA) | effect on GTP-bound (active) Cdc42 (GTP-bound (active) Cdc42; 0-60 m, serum-starved Swiss 3T3 cells) | time of Cdc42 activity peak (GTP-bound (active) Cdc42; another peak) | time of Cdc42 activity peak (GTP-bound (active) Cdc42; first peak) | effect on Cdc42 (Cdc42) |
| --- | --- | --- | --- | --- | --- | --- | --- | --- | --- | --- |
| O=S(=O)(Nc1ccccc1O)c1ccc2oc3ccc(S(=O)(=O)Nc4ccccc4O)cc3c2c1 [ZCL279, N^2,N^8-bis(2-hydroxyphenyl)dibenzo[b,d]furan-2,8-disulfonamide] | improve instinctual behavior | improve instinctual behavior | appeared similar to WT mice | improves spatial memory ability |  |  |  |  |  |  |
| Cc1cc(C)nc(NS(=O)(=O)c2ccc(NC(=S)NC(=O)COc3ccc(Br)cc3Cl)cc2)n1 [ZCL278, 4-(3-(2-(4-bromo-2-chloro-phenoxy)-acetyl)-thioureido)-N-(4,6-dimethylpyrimidin-2-yl)-benzenesulfonamide] |  |  |  |  | ≥ 500 µM | ≥ 500 µM | activates Cdc42 | about 60 min | Approximately 15 min | inhibit Cdc42 |
